Test results taken from ChEMBL document CHEMBL1681755, “Antiviral agents 3. Discovery of a novel small molecule non-nucleoside inhibitor of hepatitis B virus (HBV)” (Bioorg Med Chem Lett, 2011).
pEC50: −log10 of the molar value.

Tests used:
[1] = test system: Hepatitis B virus; assay: Antiviral activity against Hepatitis B virus infected in human HepG2(2.2.15) cells assessed as reduction in viral DNA by Southern blotting; assay type: functional, organism-based
[2] = Cytotoxicity against human HepG2(2.2.15) cells by neutral red dye uptake assay; assay type: functional
[3] = test system: Huh-7; assay: Cytotoxicity against human HuH7 cells after 4 days by neutral red dye uptake assay; assay type: functional; conditions: Huh-7, 96 h
[4] = test system: Hepatitis B virus; assay: Antiviral activity against Hepatitis B virus infected in human HepG2 cells assessed as reduction in viral DNA after 3 days by Southern blotting; assay type: functional, organism-based; conditions: HepG2, 72 h
[5] = test system: HepG2; assay: Cytotoxicity against human HepG2 cells after 3 days by neutral red dye uptake assay; assay type: functional; conditions: HepG2, 72 h
[6] = test system: Hepatitis B virus; assay: Antiviral activity against Hepatitis B virus infected in human Huh7 cells assessed as reduction in viral DNA after 4 days by Southern blotting; conditions: Huh-7, 96 h

| SMILES | pEC50 [1] | CC50 [2] [µM] | CC50 [3] [µM] | pEC50 [4] | CC50 [5] [µM] | pEC50 [6] |
| --- | --- | --- | --- | --- | --- | --- |
| CC(C)=CCC[C@]1(C)C=Cc2c(ccc3c2C(=O)C(O)=C(C2=C(C4=C(O)C(=O)c5c(ccc6c5C=C[C@@](C)(CCC=C(C)C)O6)C4=O)C(=O)c4ccccc4C2=O)C3=O)O1 | < 5.00 | 14 |  |  |  |  |
| CC(C)=CCC[C@]1(C)C=Cc2c(ccc3c2C(=O)C(O)=C(C2=C(C4=C(O)C(=O)c5c(ccc6c5C=C[C@@](C)(CCC=C(C)C)O6)C4=O)C(=O)c4c(ccc5c4C=C[C@@](C)(CCC=C(C)C)O5)C2=O)C3=O)O1 [CONOCURVONE] | < 5.00 | > 100 |  |  |  |  |
| COc1ccc2c(c1)C(=O)C(O)=C(C1=C(C3=C(O)C(=O)c4cc(OC)ccc4C3=O)C(=O)c3ccccc3C1=O)C2=O | 7.30 | 58 |  |  |  |  |
| CC1(C)C=Cc2c(ccc3c2C(=O)C(O)=C(C2=C(C4=C(O)C(=O)c5c(ccc6c5C=CC(C)(C)O6)C4=O)C(=O)c4c(ccc5c4C=CC(C)(C)O5)C2=O)C3=O)O1 | 5.10 | 45 |  |  |  |  |
| COc1cccc2c1C(=O)C(C1=C(C3=C(O)C(=O)c4cccc(OC)c4C3=O)C(=O)c3ccccc3C1=O)=C(O)C2=O | < 5.00 | > 300 |  |  |  |  |
| CC1(C)C=Cc2c(ccc3c2C(=O)C=C(O)C3=O)O1 | 5.37 | > 300 | > 25 | 5.72 | > 25 | 5.60 |
| CC1(C)CCc2c(ccc3c2C(=O)C(O)=C(C2=C(C4=C(O)C(=O)c5c(ccc6c5CCC(C)(C)O6)C4=O)C(=O)c4c(ccc5c4CCC(C)(C)O5)C2=O)C3=O)O1 | 7.02 | 44 |  |  |  |  |
| CC1(C)C=Cc2c(ccc3c2C(=O)C(O)=C(C2=C(C4=C(O)C(=O)c5c(ccc6c5C=CC(C)(C)O6)C4=O)C(=O)c4ccccc4C2=O)C3=O)O1 | 5.00 | 1370 |  |  |  |  |
| COc1ccc2c(c1)C(=O)C(C1=C(O)C(=O)c3c(ccc4c3C=CC(C)(C)O4)C1=O)=C(C1=C(O)C(=O)c3c(ccc4c3C=CC(C)(C)O4)C1=O)C2=O | 5.82 | 466 |  |  |  |  |
| COc1cc2c(cc1OC)C(=O)C(C1=C(C3=C(O)C(=O)c4cc(OC)c(OC)cc4C3=O)C(=O)c3ccccc3C1=O)=C(O)C2=O | 6.40 | > 300 |  |  |  |  |
| CC1(C)CCc2c(ccc3c2C(=O)C(O)=C(C2=C(C4=C(O)C(=O)c5c(ccc6c5CCC(C)(C)O6)C4=O)C(=O)c4ccccc4C2=O)C3=O)O1 | 5.41 | 1430 |  |  |  |  |
| CC1(C)C=Cc2c(ccc3c2C(=O)C(O)=C(C2=C(C4=C(O)C(=O)c5c(ccc6c5C=CC(C)(C)O6)C4=O)C(=O)c4c(ccc5c4CCC(C)(C)O5)C2=O)C3=O)O1 | 8.05 | 279 |  |  |  |  |
| COc1ccc2c(c1)C(=O)C(O)=C(C1=C(C3=C(O)C(=O)c4cc(OC)ccc4C3=O)C(=O)c3c(ccc4c3CCC(C)(C)O4)C1=O)C2=O | 6.18 | > 300 |  |  |  |  |
| O=C1C(O)=C(C2=C(C3=C(O)C(=O)c4ccccc4C3=O)C(=O)c3ccccc3C2=O)C(=O)c2ccccc21 | < 5.00 | > 300 |  |  |  |  |
| Nc1nc(O)c2ncn(CCC(CO)CO)c2n1 [PENCICLOVIR] | 5.47 | 552 |  |  |  |  |
| COc1ccc2c(c1)C(=O)C(C1=C(C3=C(O)C(=O)c4ccc(OC)cc4C3=O)C(=O)c3ccccc3C1=O)=C(O)C2=O | 4.25 | 295 |  |  |  |  |
| Nc1ccn([C@@H]2CS[C@H](CO)O2)c(=O)n1 [LAMIVUDINE] | 7.22 | 2130 | 0.1 | < 5.60 | > 25 | 7.00 |
| CC(C)Oc1ccc2c(c1)C(=O)C(C1=C(O)C(=O)c3c(ccc4c3C=CC(C)(C)O4)C1=O)=C(C1=C(O)C(=O)c3c(ccc4c3C=CC(C)(C)O4)C1=O)C2=O | 6.81 | > 300 |  |  |  |  |
